What was measured:
[1] = two-compartment pharmacokinetics model estimation, rat models; parameters: species or system rats; details: for σ scaling factor of infusion rate: rat two-compartment model; for K12 rate constant: rat two-compartment model fit to Vijn and Sneyd BSR time courses after 10-second bolus (8 mg kg^−1 propofol, 3.5 mg kg^−1 etomidate)
Text: In one clinical application, the control target may be to achieve and maintain a target BSR corresponding to medical coma, thereby maintaining an equilibrium effect-site concentration. To design a suitable but not overly-complex model, it may be assumed that, due to the time lag between central compartment drug infusion and effect-site concentration increase, there must be at least two compartments to accurately model the evolution of the drug concentrations. Such a simplified two-compartment model is composed of the central plasma compartment and the auxiliary effect-site compartment connected by a first-order transfer process, ignoring any other peripheral drug distribution compartments.
The pharmacokinetic model in FIG. 9A can be described by the second-order linear differential equation system: […]
for an infusion rate of ut, in units of μg/s, scaled by a factor of σ. The kinetic rate constants k12 and k21 govern the drug flow between compartments, while the rate constant k10 determines the rate of the drug's clearance from the central compartment. The slow peripheral compartment and fast peripheral compartment, common in many population models, are not included.
These estimated parameters were used to design the closed-loop controller (see below) in order to yield a critically damped system response, that is, the fastest rise times without overshoot.
For the human models, existing population pharmacokinetic models were calibrated for a 180-cm, 70-kg person. […] Since a patient may not enter a state of burst suppression the instant the effect-site concentration is nonzero, the concentration trace was shifted negatively and transformed to pt such that the patient peaked at a BSP of 0.7, and came out of burst suppression 7 minutes after the initiation of the dose. […] Anesthesiology 65: 19-27, which is incorporated herein by reference, was used to numerically evaluate the effect-site concentration during and after a 10-second bolus of […].
Matlab's Optimization Toolbox was used to optimize these four parameters of the pharmacokinetic model to minimize this mean squared error, and yield an estimate of the best-fit rate constants and scaling factor.

burst suppression [2] = details: patient after propofol bolus induction
Text: Typically, in the operating room, a bolus dose of an anesthetic is rapidly administered to induce general anesthesia. It is often the case that the patient enters burst suppression within seconds and might remain in that state for several minutes. Since the efficiency of the drug depends on several empirical factors, it is relevant to monitor the level of suppression that is reached and its trajectory, which may help detect any anomaly, or tune the subsequent doses or levels of anesthesia.
The EEG was recorded from a scalp electrode at the FP1 site referenced to the FZ electrode of the standard electrode configuration. […] The choice of Δ=250 corresponds to a resolution of one second as in the previous case.

[3] = tested on: dopaminergic arousal pathway; details: cited from earlier work
burst suppression [4] = assay: physostigmine effect on stable burst suppression, rat EEG; type: in vivo, Sprague-Dawley rat; details: rat deeply anesthetized with 2% isoflurane
Text: The following description is with respect to an analysis of a rat under general anesthesia-induced burst suppression The BSP is compared to the BSR in order to illustrate its benefits. For the experiments described herein, signals were first band pass filtered between 5 and 30 Hz. The filtered signals were thresholded and suppression segments less than 500 milliseconds in duration were switched to 1. The binary series was then provided as an input to the BSP algorithm.
The BSP algorithm was evaluated on a rat EEG signal recorded to test whether physostigmine, a cholinergic agonist hypothesized to increase arousal, causes the burst suppression pattern observed during deep anesthesia to switch into continuous activity (associated with increased arousal). In this experiment, it is advantageous to know whether physostigmine, and not saline (control), induces a shift from burst suppression (deep anesthesia) to a delta wave pattern (lighter anesthesia). In case it does, it is desirable characterize the temporal dynamics of that change.
A rat pre-implanted with extradural EEG electrodes was deeply anesthetized with 2% isoflurane. After stabilization of the inhaled concentration, the EEG signal, was recorded for 10 minutes prior to a saline intravenous injection (control). Six minutes later, physostigmine was injected and the recording was maintained for an additional thirty minutes. […]

[5] = rat two-compartment model fit to Vijn and Sneyd BSR time courses after 10-second bolus

Text for alpha (8-13 Hz) power: 14 patients were implanted with iEEG electrode arrays as part of standard clinical treatment for intractable epilepsy. The arrays included linear penetrating depth arrays having 6-8 electrodes, subdural grid arrays having 16-64 electrodes, and/or subdural strip arrays having 4-16 electrodes (Adtech Medical, Racine, Wis.) (FIG. 21). Surface EEG electrodes were additionally applied to six patients in a subset of the standard 10-20 EEG configuration. Electrode placement was selected by the patients' clinicians without regard to the current study. […] Recordings were obtained during electrode explant surgery that occurred after 1-3 weeks of inpatient monitoring to determine epileptogenic foci. Signal acquisition began prior to induction of general anesthesia and continued until the electrodes were disconnected for explant. EEG and iEEG signals were recorded with a sampling rate of a 2000, 500, or 250 Hz depending on settings of the hospital's clinical acquisition system. Signals were digitized with hardware amplifiers (XLTEK, Natus Medical, Inc., San Carlos, Calif.) that bandpassed between 0.3 Hz and the sampling rate, and were stored on a computer (Dell) for offline processing.
Drug protocols were selected by the patients' clinicians without regard to the current study.
Patients were delivered auditory stimuli through headphones (prerecorded words and the patient's name) approximately every 4 seconds during the task, and were instructed to respond with a button click. Responses were recorded using stimulus presentation software (Presentation, Neurobehavioral Systems, Inc., Albany, Calif., or EPrime, Psychology Software Tools, Inc., Sharpsburg, Pa.). […] This patient was excluded from group analyses of peri-LOC dynamics.
In each subject, two epochs were distinguished over the recording period. […] We used visual inspection to identify the postinduction epoch. […] Burst suppression intervals were excluded to avoid the confound of low-power suppression intervals in group analyses, which differed in total time across patients. […]

Q: What does the source list for `CCOC(=O)c1cncn1[C@H](C)c1ccccc1` [Etomidate]?
A: σ scaling factor of infusion rate [1]: 0.8394; K21 rate constant [1, 5]: 0.6703 min⁻¹; K12 rate constant [1]: 0.01547 min⁻¹

Q: With `CC(C)c1cccc(C(C)C)c1O` [Propofol, 2,6-di-isopropylphenol] as the compound, how does the “time after LOC to abrupt suppression of alpha power” value (alpha (8-13 Hz) power; Patient 9, occipital and temporal channels) read?
A: ≤ 10 s

Q: And the “increase of median alpha power in the postinduction period” value (alpha (8-13 Hz) power; hippocampus, cingulate cortex, medial white matter electrodes)?
A: approximately 5 dB

Q: And the “change of alpha power in the postinduction period” value (alpha (8-13 Hz) power; occipital, parietal, inferotemporal cortex and primary auditory cortex)?
A: consistently decreased

Q: And the “σ scaling factor of infusion rate” value [1]?
A: 0.5885

Q: And the “K10 rate constant (clearance from central compartment)” value [1, 5]?
A: 4.552 min⁻¹

Q: And the K21 rate constant [1, 5]?
A: 0.9599 min⁻¹

Q: What about the K12 rate constant [1] of the same compound?
A: 0.01557 min⁻¹

Q: And the “BSP reached after slow second increase” value (burst suppression [2])?
A: around 0.7

Q: And the “BSP, binary filter estimate, at minute 2” value (burst suppression [2])?
A: around 0.5

Q: And the “BSP, binary filter estimate, decrease after minute 2” value (burst suppression [2])?
A: around 0.2

Q: And the “BSP, smoother estimate, at minute 2” value (burst suppression [2])?
A: ~0.6

Q: And the “BSP, smoother estimate, decrease after minute 2” value (burst suppression [2])?
A: ~0.1

Q: And the “duration of burst suppression” value (burst suppression [2])?
A: about 8 minutes

Q: With `COC(=O)C(c1ccccc1)C1CCCCN1` (centres unmarked) [methylphenidate] as the compound, how does the “emergence from general anesthesia” value ([3]; isoflurane general anesthesia) read?
A: actively induces emergence from isoflurane general anesthesia

Q: What about the minute ventilation ([3]; plethysmography and blood gas experiments) of the same compound?
A: increases minute ventilation

Q: Which results are given for `CNC(=O)Oc1ccc2c(c1)[C@]1(C)CCN(C)[C@@H]1N2C` [physostigmine]?
A: time out of suppression after injection (burst suppression [4]): around 10 minutes; BSP after injection (burst suppression [4]; baseline BSP around 0.5): 0
